Tests used:
GSK-3β = GSK-3β (Homo sapiens, UniProt P49841); experiment: biochemical
Protocol: We evaluated the pharmacological properties of the compounds in vitro against GSK-3β using the GSK-3β Kinase Enzyme System followed by ADP-Glo bioluminescent assay.[50] The principle of the assay is to determine the amount of ADP formed from ATP in the kinase reaction. […] Additionally, compounds 11 and 36 in complex with GSK-3β were analyzed by the proteins’ melting temperature determination using Thermal Shift Assay (see Figure S1 in the SI).
The inhibitory activities of the tested compounds against the GSK-3β human recombinant kinase were measured using Promega’s GSK-3β Kinase Enzyme System (Promega; Madison, WI, USA), according to the provided manufacturer’s instruction, using the low-volume white polystyrene 384-well plates. The ADP-Glo Assay (Promega; Madison, WI, USA) was used for bioluminescent detection of the kinase activity. Tested compounds were prepared as 1 mM stock solutions in DMSO and diluted with the Kinase Assay Buffer before use (40 mM Tris, pH 7.5, enriched with 50 μM dithiothreitol; DTT) to obtain the desired compounds’ concentrations. The kinase enzyme, GSK-3β-substrate (derived from human muscle glycogen synthase 1), and ATP were also diluted in the assay buffer before use. At first, GSK-3β (10 ng per well) was incubated with the tested sample (10 μM in well) for 5 min. In the case of blank wells, the DMSO solution (1% in well) was used instead of the target samples’ solutions. After the incubation period, ATP (25 μM in well) and GSK-3β-substrate (0.2 μg/μL in well) were added to start the enzymatic reaction. The reaction mixture was kept at room temperature for 1 h, followed by the addition of the ADP-Glo reagent, to terminate the kinase reaction and deplete any remaining ATP. After the following 40 min—a second reagent (Kinase Detection Reagent) was applied to convert the obtained ADP to ATP and to generate light from the newly synthesized ATP using a luciferase/luciferin reaction. The mixture was kept for another 30 min at room temperature, then the luminescence was measured. Based on equation 100 – (S/B) × 100 (where S and B were the respective enzyme activities with and without the tested sample, respectively) the percent of inhibition of GSK-3β for each compound was calculated. […] Calculations were made using nonlinear regression (GraphPad Prism 9; GraphPad Software, San Diego, CA, USA) by plotting the residual enzyme activities against the applied inhibitor concentration. […] Each data point was collected in triplicate.

BV-2 cell line [1] = experiment: NO release in LPS-treated BV-2 cells (DAN fluorometric assay); type: cell-based, mouse; details: compound 10 μM; LPS 100 ng/mL
Protocol: (§1) Cell viability was determined by Presto Blue assay after 24 h. (B) Effect of compounds 11, 34, and 36 (0.1, 1, 10 μM) on NO-release (%) in LPS-treated (100 ng/mL) BV-2 cell line. NO-release was measured using a fluorometric assay with 2,3-diaminonaphthalene (DAN). (C, D) Effects of compounds 11 and 36 (0.1, 1, 10 μM) on IL-6 and TNF-α release in LPS-treated (100 ng/mL) BV-2 cell line. The IL-6 and TNF-α levels were measured using LANCE Ultra TR-FRET Detection Kit (PerkinElmer). Statistical analysis was performed using GraphPad Prism 9.0.0. All values are expressed as mean with SD. Differences among groups were evaluated by one-way ANOVA followed by posthoc analysis (Dunnett’s multiple comparison tests) vs. control group (LPS on BV-2 cells and okadaic acid on HT-22 cells) and were considered statistically significant if p < 0.05 (*p < 0.05, **p < 0.01, ***p < 0.001, and ****p < 0.0001).
An important role in the pathogenesis of AD has been attributed to neuroinflammation resulting from the activation of astrocytes and microglial cells.[55] These processes lead to increased production of proinflammatory cytokines such as TNF-α or IL-6 that activate processes, e.g., tau hyperphosphorylation, causing injury and cell death.[56] A standard model of neuroinflammation is based on lipopolysaccharide-stimulated BV-2 microglial cells. In this study, we used this model to evaluate the anti-inflammatory properties of compounds 11, 34, and 36.[57] Our evaluation focused on monitoring the levels of key inflammatory markers, including nitric oxide (NO, Figure 6B) and cytokines, TNF-α and IL-6 (Figure 6C,D).
The cells were pretreated with tested compounds for 1 h. […]
The NO level in the culture supernatants was measured using 2,3-diaminonaphthalene (DAN) reagent according to the method of Nussler et al.[88] After 15 min of incubation at room temperature, the fluorescence intensity (EX 360; EM 440 nm) was measured using a microplate reader POLARstar Omega, (BMG Labtech). The values of nitric oxide were calculated as a percentage of control (maximal response of LPS).

BV-2 cell line [2] = experiment: TNF-α release in LPS-treated BV-2 cells (LANCE Ultra TR-FRET); type: cell-based, mouse; details: compound 10 μM; LPS 100 ng/mL
Protocol: as §1, with “0.0001). […]” for “0.0001).”
The IL-6 and TNF-α levels in the culture supernatants were measured using LANCE Ultra TR-FRET Detection Kit (PerkinElmer), according to manufacturer protocol. […] After 1 h of incubation of IL-6 and 3h for incubation of TNF-α in the dark, at 22 °C, the plates were read with an EnVision plate reader (PerkinElmer) with the excitation wavelength at 320 nm, the donor emission at 615 nm, and the acceptor emission at 660 nm. […]

Sequence of GSK-3β (P49841 whole entry): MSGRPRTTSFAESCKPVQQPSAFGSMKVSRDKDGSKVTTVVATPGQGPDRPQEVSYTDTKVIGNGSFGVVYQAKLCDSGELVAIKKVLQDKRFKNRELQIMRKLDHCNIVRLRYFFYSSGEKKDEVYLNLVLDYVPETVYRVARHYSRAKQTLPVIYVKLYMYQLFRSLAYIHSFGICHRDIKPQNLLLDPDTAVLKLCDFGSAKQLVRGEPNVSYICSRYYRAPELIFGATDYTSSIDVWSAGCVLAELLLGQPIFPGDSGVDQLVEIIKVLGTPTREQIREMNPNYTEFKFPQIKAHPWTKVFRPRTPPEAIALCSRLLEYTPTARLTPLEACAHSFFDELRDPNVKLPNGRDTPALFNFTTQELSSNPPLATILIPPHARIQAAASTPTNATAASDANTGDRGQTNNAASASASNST

| Compound | IC50 (GSK-3β) | NO release (BV-2 cell line [1]) | TNF-α release (BV-2 cell line [2]) |
| --- | --- | --- | --- |
| NC(=O)N1CC=C(c2ccnc(NC(=O)C3CC3)c2)C1 [Compound 11, 3-(2-(Cyclopropanecarboxamido)pyridin-4-yl)-2,5-dihydro-1H-pyrrole-1-carboxamide] | 141 ± 5 nM | significantly reducing the release | significantly reducing the release |
| O=C(Nc1cc(-c2ccc(-c3ncon3)s2)ccn1)C1CC1 [Compound 36, N-(4-(5-(1,2,4-Oxadiazol-3-yl)thiophen-2-yl)pyridin-2-yl)cyclopropanecarboxamide] | 70 ± 1 nM | significantly reducing the release | significantly reducing the release |

Reference: article PMC11378298 (ACS Chemical Neuroscience, 2024)
